Measured values: patent publication US20260166051A1, “COMPOUNDS AND METHODS FOR TREATING CANCER” (The Regents of the University of California, priority 2022, published 2026)
Entries after “also recorded” stand apart in the source; their conditions may differ. Where two headings read alike, the source gives them in different places.

How the values were obtained:
[1] = Tolerability and body weight in mice; assay type: in vivo, NSG mice
[2] = test system: normal tissue cell lines; assay: Toxicity in normal tissue cell lines (NIH3T3 fibroblasts, EOC20 microglia, human astrocytes, murine neural stem/progenitor cells); assay type: cell-based; settings: alone or in combination with radiation
Source text: FIGS. 5A-D. Toxicity of the analogs MXC017, 079 and 021 in fibroblasts (NIH3T3, FIG. 5A), microglia cells (EOC20, FIG. 5B), human astrocytes (FIG. 5C) or murine neural stem/progenitor cells (FIG. 5D).
(§1) Compound 2 was identified in an unbiased phenotypic screen and MCX analogs were synthesized without knowledge of the actual molecular target. […] Western blotting confirmed inhibition of the downstream targets with downregulation of p-Erk, p-Akt and upregulation of cytosolic beta-catenin (FIG. 4).

[3] = Histology of major organs (kidneys, lung, spleen, heart, liver); assay type: in vivo, mice; settings: 50 mg/kg, 2 weeks, 5 days on, 2 days off
[4] = test system: non-stem glioblastoma cells; assay: Reprogramming assay (phenotype conversion, ZsGreen-cODC reporter, flow cytometry); assay type: cell-based, human; settings: spontaneous and radiation-induced
Procedure: Primary glioblastoma cells were engineered to express a fusion protein of ZsGreen and the C-terminal degron of ornithine decarboxylase. This construct reports for lack of 26S proteasome activity and cells with low proteasome activity are enriched for cells with tumor-initiating properties. For reprogramming experiments, cells with low proteasome activity (ZsGreen-positive) were removed by FACS. ZsGreen-negative cells were treated and 5 days later the number of radiation-induced ZsGreen-positive cells was assessed by flow cytometry.

[5] = test system: PDOX models of GBM; assay: Survival in PDOX models of GBM; assay type: in vivo, mice
[6] = test system: p-AKT; assay: Western blotting of patient-derived glioblastoma cells; assay type: cell-based, human; settings: Western blot
Source text: as §1

[7] = test system: cytosolic beta-catenin; assay: as above; assay type: cell-based, human; settings: Western blot
Source text: as §1

[8] = test system: p-ERK; assay: as above; assay type: cell-based, human; settings: Western blot
Source text: as §1

[9] = PK study, plasma and brain concentration by mass spectrometry; assay type: in vivo; settings: mice; for Kp: mouse, brain/plasma, 50 mg/kg
Procedure: FIGS. 38A and 38B. PK studies for MXC-017 and MXC-079 Mice were treated with a single dose of the novel compounds at 50 mg/kg. Plasma and brain samples were taken at indicated time points and compound concentration measured by mass spectrometry.
(§2) After two weeks of treatment the tumors were harvested, processed into single cells and the number of glioma cells with sphere-forming capacity (glioma stem cells) was determined in a functional assay (extreme limiting dilution assay). […] (FIG. 40A).

[10] = test system: Nestin-positive glioma stem cells; assay: Immunofluorescent staining of brains of glioma bearing mice; assay type: in vivo; settings: combined treatment with radiation and MXC-017
Source text: (§3) FIGS. 41A-B. Immunofluorescent staining of brains of glioma bearing mice using antibodies against Olig2 and Nestin. Combined treatment with radiation and MXC-017 eliminated Nestin-positive glioma stem cells in the tumors while not effecting the sensitive normal tissue cell population of Olig2-positive oligodendrocytes in the brain. Nuclei were counterstained.

[11] = test system: Olig2-positive oligodendrocytes; assay: as above; assay type: in vivo; settings: combined treatment with radiation and MXC-017
Source text: as §3

[12] = test system: HK374 cells; assay: In vivo treatment of HK374 tumors, then in vitro extreme limiting dilution assay; design: species or system NSG mice
Procedure: FIGS. 39A-D. FIG. 39A NSG mice were injected with HK374 cells. After 2 weeks post grafting, mice received a single dose of 10 Gy and 5 daily injections/week of MXC-017 or saline for 2 weeks. Tumors were harvested and an in vitro extreme limiting dilution assay was performed. […] FIG. 39D Elimination of GSCs was reflected by the complete loss of cells with self-renewing capacity.
as §2

[13] = test system: patient-derived glioma cells; assay: Secondary screening: self-renewal in patient-derived glioma cells; assay type: cell-based, human; settings: patient-derived glioma cells (GBM)
Procedure: Cells were seeded under serum-free conditions into untreated plates in DMEM/F12 media, supplemented with 10 ml/500 mL of B27 (Invitrogen), 0.145 U/ml recombinant insulin (Eli Lilly, Indiana), 0.68 U/mL heparin (Fresenius Kabi, Illinois), 20 ng/ml fibroblast growth factor 2 (bFGF, Sigma) and 20 ng/ml epidermal growth factor (EGF, Sigma). After 10 days in culture, spheres formed from singles cells were counted. Certain compounds tested in sphere-forming assay according to the present disclosure are shown below. Results are shown in FIGS. 6, 7, 8, 9-19, 26, 33-37.

[14] = In vivo BBB penetration of compound 2; settings: mice
[15] = test system: HK-374 glioma stem cells; assay: Sphere-forming assay: self-renewal of HK-374 glioma stem cells; assay type: cell-based, human; settings: n=3
Source text: FIG. 42. Inhibition of self-renewal of HK-374 glioma stem cells in the absence of radiation.
FIG. 43. Inhibition of self-renewal of HK-374 glioma stem cells in combination with 4 Gy.
Primary human glioma cell lines were established at UCLA as described (Hemmati et al., PNAS 2003; Characteristics of specific gliomasphere lines can be found in Laks et al., Neuro-Oncology 2016). Primary glioblastoma cells were propagated as gliomaspheres in serum-free conditions in T25 flasks in DMEM/F12, supplemented with B27, EGF, bFGF and heparin as described previously (Vlashi et al., Journal of the NCI, 2009, 101, 350-9). All cells were grown in a humidified atmosphere at 37° C. with 5% CO2. The unique identity of all patient-derived specimen was confirmed by DNA fingerprinting (Laragen, Culver City, CA). All lines were routinely tested for mycoplasma infection (MycoAlert, Lonza). […]
Cells were seeded under serum-free conditions into untreated plates in DMEM/F12 media, supplemented with 10 ml/500 mL of B27 (Invitrogen), 0.145 U/ml recombinant insulin (Eli Lilly, Indiana), 0.68 U/mL heparin (Fresenius Kabi, Illinois), 20 ng/ml fibroblast growth factor 2 (bFGF, Sigma) and 20 ng/ml epidermal growth factor (EGF, Sigma). After 10 days in culture, spheres formed from singles cells were counted. […]

[16] = alone or in combination with radiation
[17] = single dose 50 mg/kg, brain versus plasma, read-out: enrichment in brain tissue
[18] = read-out: brain to plasma ratio

O=C(NCc1ccc(S(=O)(=O)N2CCCCC2)cc1)n1ccc2ccccc21 [MXC017, N-(4-(Piperidin-1-ylsulfonyl)benzyl)-1H-indole-1-carboxamide]
tolerability ([1]; 5 daily injections/week for 2 weeks): well tolerated; also recorded: well tolerated in mice with no acute clinical toxicity | body weight during observation time of 2 weeks [1, 16]: allowed animals to gain weight | toxicity in normal tissue cell lines [2]: no relevant toxicity | histological signs of toxicity in major organs [3]: did not reveal any toxicity | phenotype conversion of non-stem glioma cells into glioblastoma-initiating cells ([4]; listed as MCX017): prevent spontaneous and radiation-induced phenotype conversion; also recorded: prevented radiation-induced phenotype conversion | median survival ([5]; MXC-017 alone, five daily doses/week): small but significant increase | median survival ([5]; single dose 10 Gy plus MXC-017 50 mg/kg, 5 days on, 2 days off, prolonged from 29 days, p<0.0001 log-rank): 60 days | p-AKT level (FLT3 target) [6]: down-regulation | cytosolic beta-catenin level (TNIK target) [7]: stabilization | p-ERK level (FLT3 target) [8]: down-regulation | peak brain concentrations [9]: in the micromolar range | Kp [9, 17]: 4.55 | Kp [9, 18]: 4.55 | Nestin-positive glioma stem cells in the tumors [10]: eliminated | effect on oligodendrocytes (normal tissue) in the brain [11]: not effecting; also recorded: had no effect | number of GSCs ([12]; MXC-017 alone, 2 weeks treatment, extreme limiting dilution assay): significantly reduced | frequency of glioma stem cells [12, 16]: significantly reduced | number of sphere forming cells [12, 16]: reduced the number of sphere forming cells | number of GSCs ([12]; combination of radiation (single dose 10 Gy) and MXC-017): eliminated all GSCs

C=C1c2ccccc2NC(=O)N1Cc1ccc(S(=O)(=O)N2CCCCC2)cc1 [Compound 2, 4-Methylene-3-(4-(piperidin-1-ylsulfonyl)benzyl)-3,4-dihydroquinazolin-2(1H)-one]
inhibition of self-renewal [13]: inhibits self-renewal | inhibition of self-renewal ([13]; listed as compound 2): confirming activity | BBB penetration in vivo [14]: penetrates the BBB | BBB penetration in vivo ([14]; listed as compound 2): confirmed the in silico prediction of BBB penetration

O=C(NCc1ccc(S(=O)(=O)N2CCCCCC2)cc1)n1ccc2ccccc21 [MXC079, N-(4-(Azepan-1-ylsulfonyl)benzyl)-1H-indole-1-carboxamide]
toxicity in normal tissue cell lines [2]: no relevant toxicity | phenotype conversion of non-stem glioma cells into glioblastoma-initiating cells ([4]; listed as MCX079): prevent spontaneous and radiation-induced phenotype conversion; also recorded: prevented radiation-induced phenotype conversion | p-AKT level (FLT3 target) [6]: down-regulation | cytosolic beta-catenin level (TNIK target) [7]: stabilization | p-ERK level (FLT3 target) [8]: down-regulation | peak brain concentrations [9]: in the micromolar range | Kp [9, 17]: 2.63 | Kp [9, 18]: 2.6

CCN(CC)S(=O)(=O)c1ccc(CNCc2ccccc2N)cc1 [MXC021, 4-(((2-Aminobenzyl)amino)methyl)-N,N-diethylbenzenesulfonamide]
toxicity in normal tissue cell lines [2]: no relevant toxicity

O=C(NCc1ccc(S(=O)(=O)N2CCCCC2)cc1)n1ccc2cc(Cl)ccc21 [MHD003, 5-chloro-N-(4-(piperidin-1-ylsulfonyl)benzyl)-1H-indole-1-carboxamide]
self renewal of glioma stem cells, % of irradiated controls ([15]; in combination with 4 Gy, controls DMSO, p<0.0001): 6% | self-renewal of HK-374 glioma stem cells in the absence of radiation (reduced to) ([15]; unirradiated cells, one-way ANOVA): 14%
